These results are taken from the supplement of paper PMC10307832.

Assay in all cases: relative viability (nuclei count vs DMSO), 5 days (fraction); higher = more cells survive
Compound in experiment [1]: O=C(CCCCCCC(=O)Nc1ccccc1)NO [Vorinostat] + Cc1nc(NC(=O)N2CCC[C@H]2C(N)=O)sc1-c1ccnc(C(C)(C)C(F)(F)F)c1 [Alpelisib] (partner 2 µM)
In short, it runs like this: (§1)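 Nuclei were stained with Hoechst during a one-step fixation (final 0.05% Triton X-100, 1% formaldehyde, 1 ug/ml Hoechst) carried out 5 days after dosing, then counted on 4× images. The cells, lung cancer lines in 1536-well plates, had been dosed by pin tool the day after seeding with one drug alone or a fixed anchor-drug dose plus five library-drug doses (not always all listed) in √10 steps. Relative viability is the nuclei count in treated wells divided by that in vehicle wells, and each value is the median of duplicate plates.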

Compound in experiment [2]: O=C(CCCCCCC(=O)Nc1ccccc1)NO [Vorinostat] + COc1cccc2cc(-c3nc([C@H]4CC[C@H](C(=O)O)CC4)n4ncnc(N)c34)[nH]c12 [OSI-027] (partner 0.5 µM)
The method in brief: as §1

Compound in experiment [3]: O=C(CCCCCCC(=O)Nc1ccccc1)NO [Vorinostat] + Nc1ncn([C@H]2C[C@H](O)[C@@H](CO)O2)c(=O)n1 [Decitabine] (partner 2 µM)
In short, it runs like this:
as §1

Compound in experiment [4]: O=C(CCCCCCC(=O)Nc1ccccc1)NO [Vorinostat] + CCNC(=O)c1noc(-c2cc(C(C)C)c(O)cc2O)c1-c1ccc(CN2CCOCC2)cc1 [Luminespib] (partner 0.01 µM)
The method in brief: as §1

Compound in experiment [5]: O=C(CCCCCCC(=O)Nc1ccccc1)NO [Vorinostat] + CS(=O)(=O)CCNCc1ccc(-c2ccc3ncnc(Nc4ccc(OCc5cccc(F)c5)c(Cl)c4)c3c2)o1 [Lapatinib] (partner 2 µM)
In short, it runs like this:
as §1

For the cell line SK-LU-1, the relative viability in experiment [1] (first compound 0.253 µM) is 1.14; in experiment [1] (first compound 0.8 µM), 0.721; in experiment [1] (first compound 2.53 µM), 0.488; in experiment [1] (first compound 8 µM), 0.178; in experiment [2] (first compound 0.253 µM), 0.407; in experiment [2] (first compound 0.8 µM), 0.377. The relative viability is 0.204 in experiment [2] (first compound 2.53 µM); 0.116 in experiment [2] (first compound 8 µM); 0.655 in experiment [3] (first compound 0.253 µM); 0.669 in experiment [3] (first compound 0.8 µM); 0.494 in experiment [3] (first compound 2.53 µM); 0.196 in experiment [3] (first compound 8 µM). The relative viability was 0.21 in experiment [4] (first compound 0.253 µM); 0.234 in experiment [4] (first compound 0.8 µM); 0.176 in experiment [4] (first compound 2.53 µM); 0.196 in experiment [4] (first compound 8 µM); 1.05 in experiment [5] (first compound 0.253 µM); 0.738 in experiment [5] (first compound 0.8 µM). Besides, the values for the relative viability in experiment [5] (first compound 2.53 µM) and in experiment [5] (first compound 8 µM) were 0.449 and 0.16, respectively.
SK-MES-1: the relative viability in experiment [1] (first compound 0.253 µM) was found to be 0.948; in experiment [1] (first compound 0.8 µM), 0.904; in experiment [1] (first compound 2.53 µM), 0.437; in experiment [1] (first compound 8 µM) it was 0.144; in experiment [2] (first compound 0.253 µM) it was 0.72; in experiment [2] (first compound 0.8 µM), 0.664. Further, the relative viability in experiment [2] (first compound 2.53 µM) is 0.199; in experiment [2] (first compound 8 µM), 0.149; in experiment [3] (first compound 0.253 µM) it was 0.362; in experiment [3] (first compound 0.8 µM) it was 0.364; in experiment [3] (first compound 2.53 µM), 0.212; in experiment [3] (first compound 8 µM), 0.163. Moreover, the relative viability amounted to 1.01 in experiment [4] (first compound 0.253 µM); 0.774 in experiment [4] (first compound 0.8 µM); 0.423 in experiment [4] (first compound 2.53 µM); 0.178 in experiment [4] (first compound 8 µM); 0.504 in experiment [5] (first compound 0.253 µM); 0.438 in experiment [5] (first compound 0.8 µM). In addition, the relative viability in experiment [5] (first compound 2.53 µM) was found to be 0.433; in experiment [5] (first compound 8 µM) it was 0.187.
Turning to SW 1573, the relative viability in experiment [1] (first compound 0.253 µM) was 1.03; in experiment [1] (first compound 0.8 µM), 0.901; in experiment [1] (first compound 2.53 µM) it was 0.587; in experiment [1] (first compound 8 µM), 0.147; in experiment [2] (first compound 0.253 µM) it was 1.1; in experiment [2] (first compound 0.8 µM), 0.633. The relative viability in experiment [2] (first compound 2.53 µM) was found to be 0.183; in experiment [2] (first compound 8 µM), 0.051; in experiment [3] (first compound 0.253 µM), 0.514; in experiment [3] (first compound 0.8 µM), 0.355; in experiment [3] (first compound 2.53 µM), 0.14; in experiment [3] (first compound 8 µM), 0.0457. In addition, the relative viability in experiment [4] (first compound 0.253 µM) came to 0.212; in experiment [4] (first compound 0.8 µM) it was 0.381; in experiment [4] (first compound 2.53 µM) it was 0.222; in experiment [4] (first compound 8 µM), 0.0808; in experiment [5] (first compound 0.253 µM), 1.17; in experiment [5] (first compound 0.8 µM), 1.07. The results for the relative viability in experiment [5] (first compound 2.53 µM) and in experiment [5] (first compound 8 µM) were 0.824 and 0.133, respectively.
In the case of UMC-11, the relative viability in experiment [1] (first compound 0.253 µM) came out at 1.02; in experiment [1] (first compound 0.8 µM) it was 0.852; in experiment [1] (first compound 2.53 µM), 0.221; in experiment [1] (first compound 8 µM), 0.0659; in experiment [2] (first compound 0.253 µM), 0.441; in experiment [2] (first compound 0.8 µM), 0.263. Moreover, the relative viability in experiment [2] (first compound 2.53 µM) stood at 0.135; in experiment [2] (first compound 8 µM), 0.0952; in experiment [3] (first compound 0.253 µM), 0.613; in experiment [3] (first compound 0.8 µM) it was 0.402; in experiment [3] (first compound 2.53 µM) it was 0.179; in experiment [3] (first compound 8 µM), 0.134. For the same cell line, the relative viability in experiment [4] (first compound 0.253 µM) turned out to be 1.03; in experiment [4] (first compound 0.8 µM), 0.566; in experiment [4] (first compound 2.53 µM), 0.149; in experiment [4] (first compound 8 µM), 0.108; in experiment [5] (first compound 0.253 µM), 1.05; in experiment [5] (first compound 0.8 µM), 0.238. For the same cell line, the relative viability in experiment [5] (first compound 2.53 µM) worked out at 0.137; in experiment [5] (first compound 8 µM) it was 0.0786.
